Strand notation (5' to 3'): a small letter for the sugar, then the base; units joined by * are phosphorothioate-linked, units joined directly phosphodiester-linked; [ ] holds rarer units or linkages, { } end groups; capitals alone tell only the bases. e = 2'-O-(2-methoxyethyl) (MOE); [5mC] = 5-methylcytosine; d = 2'-deoxy (DNA)
System: human Factor 7 mRNA
Assay: Antisense inhibition of human Factor 7 mRNA in HepB3 cells, 50 nM antisense oligonucleotide, lipofectin
Assay type: cell-based
Details: Table 1, 50 nM, lipofectin, approximately 24 hours, relative to untreated control cells
In short: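 4,000 cells/well; ~24 h exposure; RNA isolated; probe set RTS 2927; normalised to RIBOGREEN® total RNA; % inhibition vs untreated.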

Question: Which “% Inhibition” value does the source give for “407905 (antisense e[5mC]*e[5mC]*eA*eG*eT*dT*d[5mC]*dT*dT*dG*dA*dT*dT*dT*dT*eG*eT*e[5mC]*eG*eA) [compound 407905]” here?
Answer: 40%

Question: “407925 (antisense eG*eA*eA*eT*eA*dT*dA*dT*dG*dG*dG*dA*dT*dT*dT*eG*eG*eT*eG*e[5mC]) [compound 407925]” was tested. Which “% Inhibition” value did it give?
Answer: 64%

Question: “407661 (antisense eT*eT*eT*eA*e[5mC]*dA*dA*dG*dA*dG*d[5mC]*dA*dG*dG*dG*eT*eG*e[5mC]*e[5mC]*eT) [compound 407661]” was tested. Which “% Inhibition” value did it give?
Answer: 47%

Question: Which “% Inhibition” value does the source give for “407597 (antisense eT*eG*eT*eT*eG*dA*d[5mC]*dA*dT*dT*d[5mC]*d[5mC]*d[5mC]*d[5mC]*dA*eT*eG*eG*eG*eA) [compound 407597]” here?
Answer: 39%

Question: Which “% Inhibition” value does the source give for “407627 (antisense eG*e[5mC]*e[5mC]*e[5mC]*eA*dG*d[5mC]*dA*d[5mC]*d[5mC]*dG*d[5mC]*dG*dA*dT*e[5mC]*eA*eG*eG*eT) [compound 407627]” here?
Answer: 79%

Question: For “407603 (antisense eT*eA*eA*eG*eA*dA*dA*dT*d[5mC]*d[5mC]*dA*dG*dA*dA*d[5mC]*eA*eG*e[5mC]*eT*eT) [compound 407603]”, which “% Inhibition” value is on record?
Answer: 54%

Question: Which “% Inhibition” value does the source give for “407896 (antisense e[5mC]*eG*eT*eG*eT*dG*dG*dT*d[5mC]*dA*d[5mC]*dT*dG*d[5mC]*dA*eG*eT*eA*e[5mC]*eT) [compound 407896]” here?
Answer: 73%

Question: With “407943 (antisense eG*e[5mC]*eA*eG*eG*d[5mC]*dA*d[5mC]*d[5mC]*dA*d[5mC]*dA*dG*dG*dT*eG*eT*eG*e[5mC]*eG) [compound 407943]” as the substance, how does the “% Inhibition” value read?
Answer: 34%

Question: Which “% Inhibition” value does the source give for “407664 (antisense e[5mC]*eA*eG*eG*eG*d[5mC]*dG*dA*dG*dG*d[5mC]*dA*dA*d[5mC]*d[5mC]*e[5mC]*e[5mC]*eG*eT*eG) [compound 407664]” here?
Answer: 70%

Question: With “407617 (antisense eT*e[5mC]*e[5mC]*eA*e[5mC]*dA*dT*dG*dG*dA*dT*dA*dT*dT*d[5mC]*eA*eA*e[5mC]*eT*eG) [compound 407617]” as the substance, how does the “% Inhibition” value read?
Answer: 67%

Question: With “407920 (antisense eT*eG*eA*eG*e[5mC]*dG*d[5mC]*dA*dT*dG*dA*dG*d[5mC]*dT*dT*eT*eT*eG*e[5mC]*eA) [compound 407920]” as the substance, how does the “% Inhibition” value read?
Answer: 65%

Same assay, conditions: Table 6, 50 nM, lipofectin, approximately 24 hours

Question: With “422122 (antisense eA*eG*e[5mC]*eG*e[5mC]*dG*dG*dA*dA*dG*dA*dA*dG*dG*dG*eA*e[5mC]*eG*eG*eA) [compound 422122]” as the substance, how does the “% Inhibition” value read?
Answer: 24%

Question: “422269 (antisense eG*eA*dG*d[5mC]*dG*d[5mC]*dG*dG*dA*dA*dG*dA*dA*dG*dG*eG*eA*e[5mC]*eG*eG) [compound 422269]” was tested. Which “% Inhibition” value did it give?
Answer: 27%

Question: For “422121 (antisense eG*e[5mC]*eG*e[5mC]*eG*dG*dA*dA*dG*dA*dA*dG*dG*dG*dA*e[5mC]*eG*eG*eA*eA) [compound 422121]”, which “% Inhibition” value is on record?
Answer: 43%

Same assay, conditions: Table 13 (microwalk), 50 nM, lipofectin, approximately 24 hours

Question: “422227 (antisense eG*e[5mC]*dA*dT*dG*dG*dT*dG*dA*dT*dG*d[5mC]*dT*dT*d[5mC]*eT*eG*eA*eA*eT) [compound 422227]” was tested. Which “% Inhibition” value did it give?
Answer: 67%

Question: Which “% Inhibition” value does the source give for “422153 (antisense e[5mC]*eA*eT*dG*d[5mC]*dA*dT*dG*dG*dT*dG*dA*dT*dG*d[5mC]*dT*dT*e[5mC]*eT*eG) [compound 422153]” here?
Answer: 67%

Question: Which “% Inhibition” value does the source give for “416482 (antisense e[5mC]*eA*eT*eG*eG*dT*dG*dA*dT*dG*d[5mC]*dT*dT*d[5mC]*dT*eG*eA*eA*eT*eT) [compound 416482]” here?
Answer: 64%

Same assay, conditions: lipofectin, 50 nM antisense oligonucleotide, approximately 24 hours, Factor 7 mRNA by real-time RT-PCR (RTS 2927), relative to untreated control

Question: For “416470 (antisense eG*e[5mC]*eT*eT*eT*dT*dG*d[5mC]*dA*dG*d[5mC]*d[5mC]*dA*d[5mC]*dT*e[5mC]*eG*eA*eT*eG) [compound 416470]”, which “% Inhibition” value is on record?
Answer: 39%

Question: With “416531 (antisense eA*eG*eA*eT*eG*dA*d[5mC]*d[5mC]*dA*dG*d[5mC]*dA*dG*dG*dA*eA*eG*e[5mC]*e[5mC]*eT) [compound 416531]” as the substance, how does the “% Inhibition” value read?
Answer: 19%

Question: For “416510 (antisense eG*eA*e[5mC]*eG*eA*dG*dG*d[5mC]*d[5mC]*dT*d[5mC]*dA*dG*dG*dT*eG*eG*eA*e[5mC]*eG) [compound 416510]”, which “% Inhibition” value is on record?
Answer: 30%

Question: Which “% Inhibition” value does the source give for “416525 (antisense eT*eA*eT*eG*eA*dG*dT*d[5mC]*d[5mC]*dT*dT*d[5mC]*dT*dA*dG*eT*eG*eA*eA*eT) [compound 416525]” here?
Answer: 5%

Question: “416496 (antisense e[5mC]*eA*eA*e[5mC]*eA*d[5mC]*dT*dT*d[5mC]*dA*dA*dA*dT*dA*d[5mC]*eG*eA*eT*e[5mC]*eT) [compound 416496]” was tested. Which “% Inhibition” value did it give?
Answer: 0%

Question: Which “% Inhibition” value does the source give for “416426 (antisense eA*eG*e[5mC]*e[5mC]*e[5mC]*dA*dA*dG*d[5mC]*dA*dG*dA*dA*dG*dG*e[5mC]*eA*eG*eA*eG) [compound 416426]” here?
Answer: 34%

Question: With “416482 (antisense e[5mC]*eA*eT*eG*eG*dT*dG*dA*dT*dG*d[5mC]*dT*dT*d[5mC]*dT*eG*eA*eA*eT*eT) [compound 416482]” as the substance, how does the “% Inhibition” value read?
Answer: 64%

Question: How did the “% Inhibition” value turn out when “416491 (antisense eG*eA*eG*eA*eA*dG*dG*dG*dT*dT*dG*d[5mC]*dA*dG*dG*e[5mC]*eA*eG*eG*eA) [compound 416491]” was run?
Answer: 2%

Question: How did the “% Inhibition” value turn out when “416504 (antisense eT*e[5mC]*eA*eG*eA*dA*dA*dA*dG*d[5mC]*dT*d[5mC]*dT*d[5mC]*dA*eA*eG*eA*eA*e[5mC]) [compound 416504]” was run?
Answer: 0%

Question: For “416481 (antisense eA*eG*eA*eT*eG*dA*dT*dA*dA*dT*dG*dG*dA*dT*dA*eA*eG*eA*eA*e[5mC]) [compound 416481]”, which “% Inhibition” value is on record?
Answer: 15%

Same assay, conditions: oligonucleotides targeted to nucleobases 11830 to 11869 of SEQ ID NO: 1 (Table 9)

Question: Which “% Inhibition (human Factor 7 mRNA levels)” value does the source give for “422095 (antisense eA*e[5mC]*eA*eA*eT*dG*dG*dT*d[5mC]*dA*dG*dG*dG*d[5mC]*dT*eG*eG*eT*eT*eT) [compound 422095]” here?
Answer: 60%

Question: How did the “% Inhibition (human Factor 7 mRNA levels)” value turn out when “422242 (antisense eG*eG*dA*dG*dA*d[5mC]*dA*dA*dT*dG*dG*dT*d[5mC]*dA*dG*eG*eG*e[5mC]*eT*eG) [compound 422242]” was run?
Answer: 64%

Same assay, conditions: oligonucleotides targeted to nucleobases 13760 to 13789 of SEQ ID NO: 1 (Table 10)

Question: “422256 (antisense e[5mC]*eA*d[5mC]*d[5mC]*d[5mC]*dG*d[5mC]*d[5mC]*dG*dG*d[5mC]*dT*d[5mC]*dT*dG*e[5mC]*eT*e[5mC]*eA*eT) [compound 422256]” was tested. Which “% Inhibition (human Factor 7 mRNA levels)” value did it give?
Answer: 29%

Question: How did the “% Inhibition (human Factor 7 mRNA levels)” value turn out when “422109 (antisense e[5mC]*e[5mC]*e[5mC]*eG*e[5mC]*d[5mC]*dG*dG*d[5mC]*dT*d[5mC]*dT*dG*d[5mC]*dT*e[5mC]*eA*eT*e[5mC]*e[5mC]) [compound 422109]” was run?
Answer: 68%

Question: For “422254 (antisense e[5mC]*e[5mC]*d[5mC]*dG*d[5mC]*d[5mC]*dG*dG*d[5mC]*dT*d[5mC]*dT*dG*d[5mC]*dT*e[5mC]*eA*eT*e[5mC]*e[5mC]) [compound 422254]”, which “% Inhibition (human Factor 7 mRNA levels)” value is on record?
Answer: 42%

Same assay, conditions: oligonucleotides targeted to nucleobases 14707 to 14732 of SEQ ID NO: 1 (Table 11)

Question: For “422133 (antisense eA*eG*e[5mC]*eA*eG*d[5mC]*d[5mC]*dT*dG*dA*dG*dG*d[5mC]*d[5mC]*dA*eG*e[5mC]*eA*eG*eA) [compound 422133]”, which “% Inhibition (human Factor 7 mRNA levels)” value is on record?
Answer: 65%

Same assay, conditions: oligonucleotides targeted to nucleobases 15098 to 15122 of SEQ ID NO: 1 (Table 12)

Question: With “422285 (antisense eG*e[5mC]*dA*d[5mC]*dA*d[5mC]*dA*dT*dG*dG*dA*dG*dT*d[5mC]*dA*eG*e[5mC]*eA*eT*e[5mC]) [compound 422285]” as the substance, how does the “% Inhibition (human Factor 7 mRNA levels)” value read?
Answer: 39%

Question: With “422208 (antisense eG*e[5mC]*eA*d[5mC]*dA*d[5mC]*dA*dT*dG*dG*dA*dG*dT*d[5mC]*dA*dG*d[5mC]*eA*eT*e[5mC]) [compound 422208]” as the substance, how does the “% Inhibition (human Factor 7 mRNA levels)” value read?
Answer: 56%

Question: For “422210 (antisense e[5mC]*eA*eG*d[5mC]*dA*d[5mC]*dA*d[5mC]*dA*dT*dG*dG*dA*dG*dT*d[5mC]*dA*eG*e[5mC]*eA) [compound 422210]”, which “% Inhibition (human Factor 7 mRNA levels)” value is on record?
Answer: 25%
